In patent US20220402950A1, “SUBSTITUTED BENZIMIDAZOLES AS PAD4 INHIBITORS” (BRISTOL-MYERS SQUIBB COMPANY, priority 2018, published 2022) one finds IC50 data, which are given here for 21 compounds.

Usually IC50 stands for the concentration at which inhibition is half-maximal.

Molecules are shown by their SMILES. Where two headings read alike, the source gives them in different places.

The target of this test is human PAD4 (hPAD4) (Homo sapiens, UniProt Q9UM07). Kind of test: RFMS Human PAD4 Functional Assay. Particulars: 5 nM hPAD4, 250 μM BAEE. Format: biochemical. In outline: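 RapidFire ESI-MS quantification, normalised to a modified-citrulline internal standard, after phenyl glyoxal (final 4 mM) derivatisation of the TCA-quenched reaction. The enzyme (10 nM) sat 30 min with compound (up to 50 μM final) before 500 μM BAEE (as added) started a 90 min, 37 °C reaction. Buffer: HEPES pH 7.5, 50 μM calcium, 5 μM TPEN.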
Chain of human PAD4 (hPAD4) (Q9UM07 whole entry): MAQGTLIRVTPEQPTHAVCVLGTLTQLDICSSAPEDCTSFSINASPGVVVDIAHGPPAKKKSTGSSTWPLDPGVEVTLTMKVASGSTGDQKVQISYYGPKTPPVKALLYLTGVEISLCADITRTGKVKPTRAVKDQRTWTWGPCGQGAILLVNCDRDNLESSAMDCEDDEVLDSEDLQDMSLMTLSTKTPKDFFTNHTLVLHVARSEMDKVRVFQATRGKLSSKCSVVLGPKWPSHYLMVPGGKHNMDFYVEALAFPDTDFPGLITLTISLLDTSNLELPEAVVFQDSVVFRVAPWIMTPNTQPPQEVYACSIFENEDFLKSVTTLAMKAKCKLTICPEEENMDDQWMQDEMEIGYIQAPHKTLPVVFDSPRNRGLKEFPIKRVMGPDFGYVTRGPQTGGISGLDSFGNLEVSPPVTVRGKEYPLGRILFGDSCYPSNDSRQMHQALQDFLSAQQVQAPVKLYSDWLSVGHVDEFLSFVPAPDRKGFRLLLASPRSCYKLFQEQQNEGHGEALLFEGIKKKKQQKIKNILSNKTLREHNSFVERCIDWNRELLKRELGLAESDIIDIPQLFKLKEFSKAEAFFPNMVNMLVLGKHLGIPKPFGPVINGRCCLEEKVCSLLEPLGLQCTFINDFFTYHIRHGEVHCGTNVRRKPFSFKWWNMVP

Setting [1] is: hPAD4 RFMS IC50, human PAD4, rapid-fire mass spectrum (RFMS) assay.
The mark [2] stands for this setting: human PAD4, rapid-fire mass spectrum (RFMS) assay, read-out: hPAD4 RFMS IC50.

In turn, `COc1cc(C(=O)N2C[C@H]3CC[C@@H]2[C@@H]3N)cc2nc(-c3cc4cccc(-c5ccc6[nH]c(=O)cc(C)c6c5)c4n3CC3CC3)n(C)c12` [Example 95, 6-(2-{5-[(1R,4R,7R)-7-amino-2-azabicyclo[2.2.1]heptane-2-carbonyl]-7-methoxy-1-methyl-1H-1,3-benzodiazol-2-yl}-1-(cyclopropylmethyl)-1H-indol-7-yl)-4-methyl-1,2-dihydroquinolin-2-one] showed an IC50 under setting [1] of 0.107 µM. The same measure, in the same setting: with `COc1cc(C(=O)N2C[C@H]3CC[C@@H]2[C@@H]3N)cc2nc(-c3cc4cccc(C5CCCNC5)c4n3CC3CC3)n(C)c12` (stereo partly drawn) [Example 12, (1R,4R,7R)-2-{2-[1-(cyclopropylmethyl)-7-(piperidin-3-yl)-1H-indol-2-yl]-7-methoxy-1-methyl-1H-1,3-benzodiazole-5-carbonyl}-2-azabicyclo[2.2.1]heptan-7-amine] the figure was 0.073 µM. Consider `COc1cc(C(=O)N2C[C@H]3CC[C@@H]2[C@@H]3N)cc2nc(-c3cc4cccc(-c5cn[nH]c5)c4n3CC3CC3C)n(C)c12` (stereo partly drawn) [Example 156, ((1R,4R,7R)-7-amino-2-azabicyclo[2.2.1]heptan-2-yl)(7-methoxy-1-methyl-2-(1-((2-methylcyclopropyl)meth-yl)-7-(1H-pyrazol-4-yl)-1H-indol-2-yl)-1H-benzo[d]imidazol-5-yl)methanone], for which the half-inhibitory concentration (IC50) under setting [1] was 0.079 µM. As to `COc1cc(C(=O)N2C[C@H]3CC[C@@H]2[C@@H]3N)cc2nc(-c3cc4cccc(C5CCN(C(=O)C(OC)C6CC6)CC5)c4n3CC3CC3)n(C)c12` (stereo partly drawn) [Example 233, 1-(4-(2-(5-((1R,4R,7R)-7-amino-2-azabicyclo[2.2.1]heptane-2-carbonyl)-7-methoxy-1-methyl-1H-benzo[d]imidazol-2-yl)-1-(cyclopropylmethyl)-1H-indol-7-yl)piperidin-1-yl)-2-cyclopropyl-2-methoxyethan-1-one], half-maximal inhibition under setting [1] (IC50) was put at 0.063 µM.

On to `COc1cc(C(=O)N2C[C@H]3CC[C@@H]2[C@@H]3N)cc2nc(-c3cc4cccc(-c5ccc(O)c(C(=O)O)c5)c4n3CC3CC3)n(C)c12` [Example 121, 5-(2-(5-((1R,4R,7R)-7-amino-2-azabicyclo[2.2.1]heptane-2-carbonyl)-7-methoxy-1-methyl-1H-benzo[d]imidazol-2-yl)-1-(cyclopropylmethyl)-1H-indol-7-yl)-2-hydroxybenzoic Acid], for which the IC50 under setting [2] is 0.753 µM. `COc1cc(C(=O)N2C[C@H]3CC[C@@H]2[C@@H]3N)cc2nc(-c3cc4cccc(C5CN(C(=O)Cc6ccncc6)C5)c4n3CC3CC3)n(C)c12` [Example 73, 1-[3-(2-{5-[(1R,4R,7R)-7-amino-2-azabicyclo[2.2.1]heptane-2-carbonyl]-7-methoxy-1-methyl-1H-1,3-benzodiazol-2-yl}-1-(cyclopropylmethyl)-1H-indol-7-yl)azetidin-1-yl]-2-(pyridin-4-yl)ethan-1-one] returned a concentration for half-maximal inhibition (IC50) under setting [1] of 0.005 µM.

Take `COc1cc(C(=O)N2C[C@H]3CC[C@@H]2[C@@H]3N)cc2nc(-c3cc4cccc(C5CCN(C(=O)COc6ccccc6)CC5)c4n3CC3CC3)n(C)c12` [Example 235, 1-(4-(2-(5-((1R,4R,7R)-7-amino-2-azabicyclo[2.2.1]heptane-2-carbonyl)-7-methoxy-1-methyl-1H-benzo[d]imidazol-2-yl)-1-(cyclopropylmethyl)-1H-indol-7-yl)piperidin-1-yl)-2-phenoxyethan-1-one]: under setting [1], the concentration for half-maximal inhibition (IC50) is 0.058 µM.

For the compound `COc1cc(C(=O)N2C[C@H]3CC[C@@H]2[C@@H]3N)cc2nc(-c3cc4cccc(C5=CCN(C(C)=O)CC5)c4n3CC3CC3)n(C)c12` [Example 220, 1-(4-(2-(5-((1R,4R,7R)-7-amino-2-azabicyclo[2.2.1]heptane-2-carbonyl)-7-methoxy-1-methyl-1H-benzo[d]imidazol-2-yl)-1-(cyclopropylmethyl)-1H-indol-7-yl)-3,6-dihydropyridin-1(2H)-yl)ethan-1-one], 0.043 µM corresponded to half-maximal inhibition under setting [1] (IC50). On the same count and under the same terms, with `COc1cc(C(=O)N2C[C@H]3CC[C@@H]2[C@@H]3N)cc2nc(-c3cc4cccc(C5CCN(C(=O)NC(C)C)CC5)c4n3CC3CC3)n(C)c12` [Example 252, 4-(2-(5-((1R,4R,7R)-7-amino-2-azabicyclo[2.2.1]heptane-2-carbonyl)-7-methoxy-1-methyl-1H-benzo[d]imidazol-2-yl)-1-(cyclopropylmethyl)-1H-indol-7-yl)-N-isopropylpiperidine-1-carboxamide] the figure was 0.058 µM; with `COc1cc(C(=O)N2C[C@H]3CC[C@@H]2[C@@H]3N)cc2nc(-c3cc4cccc(C5CN(C)C5)c4n3CC3CC3)n(C)c12` [Example 22, (1R,4R,7R)-2-{2-[1-(cyclopropylmethyl)-7-(1-methylazetidin-3-yl)-1H-indol-2-yl]-7-methoxy-1-methyl-1H-1,3-benzodiazole-5-carbonyl}-2-azabicyclo[2.2.1]heptan-7-amine], 0.042 µM. Still for that read-out and setting: then `[2H]C([2H])([2H])N(C(=O)C1CC(c2cccc3cc(-c4nc5cc(C(=O)N6C[C@H]7CC[C@@H]6[C@@H]7N)cc(OC)c5n4C)n(CC4CC4)c23)C1)C([2H])([2H])[2H]` (single isomer, unassigned; isomer 2) [Example 196], with 0.053 µM. Turning to `COc1cc(C(=O)N2C[C@H]3CC[C@@H]2[C@@H]3N)cc2nc(-c3cc4cccc(-n5cc([C@H]6CC[C@H](N)CC6)nn5)c4n3CC3CC3)n(C)c12` [Example 109, (1R,4R,7R)-2-{2-[1-(cyclopropylmethyl)-7-{4-[(1r,4r)-4-aminocyclohexyl]-1H-1,2,3-triazol-1-yl}-1H-indol-2-yl]-7-methoxy-1-methyl-1H-1,3-benzodiazole-5-carbonyl}-2-azabicyclo[2.2.1]heptan-7-amine], the IC50 under setting [2] turned out to be 0.175 µM. `COc1cc(C(=O)N2C[C@H](N)C[C@@H](F)C2)cc2nc(-c3cc4cccc(C5CN(C(C)=O)C5)c4n3C)n(Cc3cnn(C)c3)c12` [Example 215, 1-(3-(2-(5-((3R,5R)-3-amino-5-fluoropiperidine-1-carbonyl)-7-methoxy-1-((1-methyl-1H-pyrazol-4-yl)methyl)-1H-benzo[d]imidazol-2-yl)-1-methyl-1H-indol-7-yl)azetidin-1-yl)ethane-1-one] registered an IC50 under setting [1] of 0.183 µM.

`COC(=O)Nc1ccc(-c2cccc3cc(-c4nc5cc(C(=O)N6C[C@H]7CC[C@@H]6[C@@H]7N)cc(OC)c5n4C)n(CC4CC4)c23)cn1` [Example 105, methyl N-[5-(2-{5-[(1R,4R,7R)-7-amino-2-azabicyclo[2.2.1]heptane-2-carbonyl]-7-methoxy-1-methyl-1H-1,3-benzodiazol-2-yl}-1-(cyclopropylmethyl)-1H-indol-7-yl)pyridin-2-yl]carbamate] returned a half-maximal inhibitory concentration (IC50) under setting [1] of 0.099 µM. Still for that read-out and setting: then `COc1cc(C(=O)N2C[C@H]3CC[C@@H]2[C@@H]3N)cc2nc(-c3cc4cccc(-c5ccc6c(c5)C(C)(O)C(=O)N6)c4n3CC3CC3)n(C)c12` (stereo partly drawn) [Example 192, 5-(2-(5-((1R,4R,7R)-7-amino-2-azabicyclo[2.2.1]heptane-2-carbonyl)-7-methoxy-1-methyl-1H-benzo[d]imidazol-2-yl)-1-(cyclopropylmethyl)-1H-indol-7-yl)-3-hydroxy-3-methylindolin-2-one], with 0.028 µM. Same read-out and setting: with `COc1cc(C(=O)N2C[C@H]3CC[C@@H]2[C@@H]3N)cc2nc(-c3cc4cccc(-c5cc[nH]n5)c4n3CC3CC3(Cl)Cl)n(C)c12` (stereo partly drawn) [Example 152, ((1R,4R,7R)-7-amino-2-azabicyclo[2.2.1]heptan-2-yl)(2-(1-((2,2-dichlorocyclopropyl)meth-yl)-7-(1H-pyrazol-3-yl)-1H-indol-2-yl)-7-methoxy-1-methyl-1H-benzo[d]imidazol-5-yl)methanone] the figure was 0.127 µM.

Take `COc1cc(C(=O)N2C[C@H]3CC[C@@H]2[C@@H]3N)cc2nc(-c3cc4cccc(Nc5c(C)nn(C)c5C)c4n3CC3CC3)n(C)c12` [Example 174, ((1R,4R,7R)-7-amino-2-azabicyclo[2.2.1]heptan-2-yl)(2-(1-(cyclopropylmethyl)-7-((1,3,5-trimethyl-1H-pyrazol-4-yl)amino)-1H-indol-2-yl)-7-methoxy-1-methyl-1H-benzo[d]imidazol-5-yl)methanone]: the IC50 under setting [1] worked out at 0.041 µM. `COc1cc(C(=O)N2C[C@H]3CC[C@@H]2[C@@H]3N)cc2nc(-c3cc4cccc(C5CCN(C(=O)COCC(F)(F)F)CC5)c4n3CC3CC3)n(C)c12` [Example 232, 1-(4-(2-(5-((1R,4R,7R)-7-amino-2-azabicyclo[2.2.1]heptane-2-carbonyl)-7-methoxy-1-methyl-1H-benzo[d]imidazol-2-yl)-1-(cyclopropylmethyl)-1H-indol-7-yl)piperidin-1-yl)-2-(2,2,2-trifluoroethoxy)ethan-1-one]: inhibition under setting [1] was half-maximal at 0.019 µM (IC50). The same measure, in the same setting: with `COc1cc(C(=O)N2C[C@H]3CC[C@@H]2[C@@H]3N)cc2nc(-c3cc4cccc(CC5CCNCC5)c4n3CC3CC3)n(C)c12` [Example 10, (1R,4R,7R)-2-{2-[1-(cyclopropylmethyl)-7-[(piperidin-4-yl)methyl]-1H-indol-2-yl]-7-methoxy-1-methyl-1H-1,3-benzodiazole-5-carbonyl}-2-azabicyclo[2.2.1]heptan-7-amine] the figure was 0.128 µM. Regarding `COc1cc(C(=O)N2C[C@H]3CC[C@@H]2[C@@H]3N)cc2nc(-c3cc4cccc(C5CC(NC(C)=O)C5)c4n3CC3CC3)n(C)c12` (stereo partly drawn) [Example 57, N-[3-(2-{5-[(1R,4R,7R)-7-amino-2-azabicyclo[2.2.1]heptane-2-carbonyl]-7-methoxy-1-methyl-1H-1,3-benzodiazol-2-yl}-1-(cyclopropylmethyl)-1H-indol-7-yl)cyclobutyl]acetamide], the 50% inhibitory concentration (IC50) under setting [2] is 0.01 µM. In turn, `COc1cc(C(=O)N2C[C@H]3CC[C@@H]2[C@@H]3N)cc2nc(-c3cc4cccc(C5CCCOC5)c4n3CC3CC3)n(C)c12` (stereo partly drawn) [Example 34, (1R,4R,7R)-2-{2-[1-(cyclopropylmethyl)-7-(oxan-3-yl)-1H-indol-2-yl]-7-methoxy-1-methyl-1H-1,3-benzodiazole-5-carbonyl}-2-azabicyclo[2.2.1]heptan-7-amine] registered an IC50 under setting [1] of 0.094 µM.
